Laboratory results reported in US8354394B2, “Diuretics” (Merck Sharp & Dohme Corp., priority 2009, dated 2013).

System: beagle dogs
Test: canine telemetry protocol for blood pressure reduction efficacy
Assay type: in vivo
Details: male beagle dogs, 3 mg/kg oral gavage
Protocol: Compounds of the invention were evaluated for blood pressure reduction efficacy using the following canine telemetry protocol.
Male beagle dogs (approximately 1-3 years old) with a body weight of between 10 and 16 kg were surgically implanted with DSI radiotelemetry devices (model: TL11M2-D70-PCT). Briefly, under an inhalant anesthesia, isoflurane/oxygen mixture (1-3.5%/to effect), the body of the telemetry device was positioned and secured intra-abdominally. Subsequently, the arterial catheter of the telemetry device was passed subcutaneously to the inguinal area and introduced into the femoral artery and advanced to the level of the descending aorta. The catheter was secured with 2-0 silk ligatures. The muscle and underlying fascia was closed over the catheter using absorbable suture and the skin was closed using non-absorbable suture. The animals were allowed a minimum recovery period of 2 weeks between surgery and the evaluation of test compounds.
Compound evaluation consisted of a 3 day paradigm at a 3 mg/kg dose. On the first day, no compounds were administered during a 24 hour period of baseline data collection. Blood pressure and heart rate data were collected continuously for one minute periods at 10 minute intervals. On the days of compound administration half the animals received test article with the other half receiving the vehicle used for compound formulation. All test materials were administered by oral gavage in a volume of 1 mL/kg. Data are expressed either as raw values (mm Hg or beats per minute) or as the change from baseline (average value for about 12 hours in low activity period prior to dosing). Change is SBP (systolic blood pressure) and PP (pulse pressure) over time is shown below: […]

| Compound | ΔPP (pulse pressure, change from baseline) 1-6 h | ΔSBP (systolic blood pressure, change from baseline) 1-6 h | ΔPP (pulse pressure, change from baseline) 6-12 h | ΔSBP (systolic blood pressure, change from baseline) 6-12 h | ΔPP (pulse pressure, change from baseline) 12-18 h | ΔSBP (systolic blood pressure, change from baseline) 12-18 h |
| --- | --- | --- | --- | --- | --- | --- |
| Cc1ncc2c(c1OC(=O)[C@H]1CC[C@@H](O/N=[N+](\[O-])N(C)C(C)(C)C)CC1)CO[C@H]2c1ccc(Cl)cc1 [Example 5, (3S)-3-(4-Chlorophenyl)-6-methyl-1,3-dihydrofuro[3,4-c]pyridin-7-yl cis-4-({[(1Z)-2-tert-butyl-2-methyl-1-oxidohydrazono]amino}oxy)cyclohexanecarboxylate] | −10 mm Hg | −11 mm Hg | −3 mm Hg | −2 mm Hg | 1 mm Hg | 2 mm Hg |
| Cc1ncc2c(c1OC(=O)[C@H]1CC[C@H](O/N=[N+](\[O-])N(C)C(C)(C)C)CC1)CO[C@H]2c1ccc(Cl)cc1 [Example 6, (3S)-3-(4-Chlorophenyl)-6-methyl-1,3-dihydrofuro[3,4-c]pyridin-7-yl trans-4-({[(1Z)-2-tert-butyl-2-methyl-1-oxidohydrazono]amino}oxy)cyclohexanecarboxylate] | −16 mm Hg | −16 mm Hg | −7 mm Hg | −6 mm Hg | −3 mm Hg | −1 mm Hg |
| Cc1ncc2c(c1OC(=O)CCCCO/N=[N+](\[O-])N(C)C(C)(C)C)CO[C@H]2c1ccc(Cl)cc1 [Example 8, (3S)-3-(4-Chlorophenyl)-6-methyl-1,3-dihydrofuro[3,4-c]pyridin-7-yl 5-({[(1Z)-2-tert-butyl-2-methyl-1-oxido-1λ^5-diazan-1-ylidene]amino}oxy)pentanoate] | −12 mm Hg | −15 mm Hg | −8 mm Hg | −12 mm Hg | −4 mm Hg | −2 mm Hg |
| Cc1ncc2c(c1OC(=O)CCC(C)CO/N=[N+](\[O-])N(C)C(C)(C)C)CO[C@H]2c1ccc(Cl)cc1 (stereo partly drawn) [Example 13, (3S)-3-(4-Chlorophenyl)-6-methyl-1,3-dihydrofuro[3,4-c]pyridin-7-yl 5-({[(1Z)-2-tert-butyl-2-methyl-1-oxido-1λ^5-diazan-1-ylidene]amino}oxy)-4-methylpentanoate] | −22 mm Hg | −30 mm Hg | −11 mm Hg | −15 mm Hg | −6 mm Hg | −4 mm Hg |
| Cc1ncc2c(c1OC(=O)CCCC(C)O/N=[N+](\[O-])N(C)C(C)(C)C)CO[C@H]2c1ccc(Cl)cc1 (stereo partly drawn) [Example 14, (3S)-3-(4-Chlorophenyl)-6-methyl-1,3-dihydrofuro[3,4-c]pyridin-7-yl 5-({[(1Z)-2-tert-butyl-2-methyl-1-oxido-1λ^5-diazan-1-ylidene]amino}oxy)hexanoate] | −18 mm Hg | −21 mm Hg | −9 mm Hg | −8 mm Hg | −3 mm Hg | 3 mm Hg |
| Cc1ncc2c(c1OC(=O)O[C@@H](C)CCCCO/N=[N+](\[O-])N(C)C(C)(C)C)CO[C@H]2c1ccc(Cl)cc1 [Example 25, (2S)-6-({[(1Z)-2-tert-butyl-2-methyl-1-oxido-1λ^5-diazan-1-ylidene]amino}oxy)hexan-2-yl (3 S) 3-(4-chlorophenyl)-6-methyl-1,3-dihydrofuro[3,4-c]pyridin-7-yl carbonate] | −12 mm Hg | −14 mm Hg | −7 mm Hg | −7 mm Hg | −4 mm Hg | 0 mm Hg |
